# Publication PMC7821884, “BRAF inhibition protects against hearing loss in mice” (Science Advances, 2020)
# Key:
# [1] = system: P3-P4 FVB mouse cochlear explants; settings: FVB, mouse, 24 h
# Experimental: Mouse cochlear explants are widely recognized as an alternative to in vivo cochlear models and pragmatic for focused drug screening ([37]). […] Medium-alone, drug-alone, and cisplatin-alone treatments were used as controls.
# P3-P4 FVB mouse cochleae were dissected and maintained in culture on filter inserts in six-well plates with 1 ml of growth medium DMEM (12430-054,Gibco Life Technologies), with 1% FBS (16000-044, Gibco Life Technologies), B-27 supplement (200 μl/500 ml; 17504-44, Gibco Life Technologies), N-2 supplement (100 μl/500 ml; 17502-048, Gibco Life Technologies), and ampicillin (50 μg/ml; A5354-10ML, Sigma-Aldrich) both inside and outside the filter (Millicell, PICM03050, Millipore). […] Cochleae were imaged by confocal microscopy, two 160-μm regions from middle turns were photographed, and the number of intact HCs was counted. Two to five independent cochleae were tested for each experimental condition.
# [2] = system: Tg(brn3c:GFP) zebrafish larvae neuromast HCs; assay: Zebrafish lateral line neuromast hair cell loss after cisplatin; assay type: in vivo
# Description: Lateral line neuromasts of zebrafish are a well-established model for the study of drug protection from cisplatin or aminoglycoside toxicity because their HCs are considered homologous to mammalian HCs and readily accessible to compounds in vivo ([47]–[49]). As in our previous studies, MI1 (medial neuromast 1) and O1-2 (otic line) neuromasts were examined in Tg(brn3c:GFP) zebrafish larvae 5 days after fertilization ([50], [51]). […] Green fluorescent protein (GFP) (brn3c) and otoferlin staining were used to identify neuromast HCs. In fig.
# Zebrafish (D. rerio) experimental larvae of either sex were obtained by pair mating of adult fish maintained at Boys Town National Research Hospital. We used zebrafish line Tg(brn3c:GFP) that expresses a membrane-bound GFP in HCs. Fish were maintained at 28.5°C in E3 media [5 mM NaCl, 0.17 mM KCl, 0.33 mM CaCl2, and 0.33 MgSO4 (pH 7.2)] at a density of 50 embryos/larvae per […] petri dish. Experimental animals were used at 5 days post-fertilization and cryo-anesthetized after treatment and before fixation. Average HC counts in our studies were obtained from the following three neuromasts: MI1 (medial neuromast 1) and O1 and O2 (otic line).
# P42 FVB mice = assay: Noise-induced hearing loss in adult mice (ABR, DPOAE, Ctbp2 puncta, pERK); assay type: in vivo, mouse
# Experimental: Noise injury cannot always be predicted, and pretreatment is often not an option.
# Compounds were dissolved in a mixture of 10% DMSO, 5% Tween 80 (P1754, Sigma-Aldrich), 40% PEG-E-300 (91462-1KG, Sigma-Aldrich), and 45% 0.9% saline.
# ABR in mice was measured for left ears as described previously with minor modifications ([13], [34]). In brief, ABR waveforms were recorded in a sound booth (Industrial Acoustic Company) by using subdermal needles positioned in the skull, below the pinna, and at the base of the tail, and the responses were fed into a low-impedance Medusa digital biological amplifier system (RA4L; TDT; 20-dB gain). At each frequency, the stimulus intensity was reduced from 90 to 0 dB in 10-dB steps to determine the threshold decibel SPL when the electrical response was just above the noise floor. ABR waveforms were averaged in response to 500 tone bursts. The recorded signals were filtered by a band-pass filter from 300 Hz to 3 kHz. Pretreatment ABR recordings of adult FVB mice (aged 6 weeks) were acquired 1 week before all treatments, and posttreatment ABR measurements were recorded 21 days after cisplatin treatment or 14 days after noise exposure. ABR threshold was determined by the presence of any of three or more of the five waveform peaks. […] All thresholds and shifts were determined independently by two experimenters for each mouse. Individual ABR wave 1 amplitudes were measured as the difference between the positive peak and the following negative trough.
# Mice were placed in individual cages in a custom-made acrylic chamber. The sound stimulus was produced by System RZ6 (TDT) equipment and amplified using a 75-A power amplifier (Crown). Sound was delivered to the acrylic chamber via a speaker horn (JBL). The SPL was calibrated with a 1/4-inch free-field microphone (PCB). Before experimental noise exposure, four quadrants of the cage inside the chamber were sampled with the 1/4-inch microphone to ensure that the SPL varied by <0.5 dB across the measured positions. Adult mice were then exposed to 2 hours of octave band noise (8 to 16 kHz) at 100 dB.
# Organs of Corti were costained with anti-Ctbp2 and anti–myosin VI antibodies. Confocal imaging was performed using a Zeiss 700 scanning confocal microscope with a 63× objective. Visualization and projections were performed using ZEN 2009 or ZEN 2012 software (Zeiss). Ctbp2 puncta were visualized and counted on the reconstructed three-dimensional images by using the ZEN 2009 or ZEN 2012 three-dimensional construct function as previously reported ([54]). […] Images were acquired around 16-kHz cochlear regions, and each image included 12 to 18 IHCs that were quantified as total number of Ctbp2 puncta divided by total number of IHCs per image.
structure (smiles),measurement,setting,value
CC(C)(C)c1nc(-c2cccc(NS(=O)(=O)c3c(F)cccc3F)c2F)c(-c2ccnc(N)n2)s1 [dabrafenib],LD50 (median lethal dose),[1],> 60 µM
same,protection from cisplatin-induced neuromast HC loss,"[2]; 1 hour pretreatment, 6 hours 400 μM cisplatin, dabrafenib 100 nM",significant protection
same,toxic effect of compound alone on neuromast HCs,[2]; all concentrations tested,no toxic effect
same,loss of Ctbp2 puncta per IHC at 16-kHz region,P42 FVB mice; 100 mg/kg pretreatment,partially rescued
same,effect on noise-reduced 16-kHz ABR wave 1 amplitude,"P42 FVB mice; 100 mg/kg pretreatment, 80- and 90-dB SPL",significantly mitigated
same,noise-induced ERK phosphorylation in SCs,"P42 FVB mice; pretreatment, 3 hours after noise",reduced ERK phosphorylation
